{"source": "ChEMBL document CHEMBL6096702", "about": "“Discovery of a Novel p38α-MK2 Complex Inhibitor as a Potential Choice for Autoimmune Diseases” (J Med Chem, 2025)", "key": {"[1]": {"assay": "Inhibition of N-terminal GST-tagged wildtype human P38alpha (4 to 152 residues) extracted from Escherichia coli/GST-tagged MK2 (unknown origin) assessed as reduction in HSP27 phosphorylation incubated for 2 hrs in presence of ATP and HSP27-FITC peptide by fluorescence polarization based IMAP assay"}, "[2]": {"assay": "Selectivity ratio of IC50 for inhibition of N-terminal GST-tagged wildtype human P38alpha (4 to 152 residues) extracted from Escherichia coli/GST-tagged PRAK (unknown origin) to IC50 for inhibition of N-terminal GST-tagged wildtype human P38alpha (4 to 152 residues) extracted from Escherichia coli/GST-tagged MK2 (unknown origin)"}, "[3]": {"assay": "AUClast in male Sprague-Dawley rat at 1 mg/kg, iv measured after 24 hrs by LC-MS/MS analysis", "type": "ADME, organism-based", "details": "in vivo"}, "[4]": {"assay": "Volume of distribution at steady state in male Sprague-Dawley rat at 1 mg/kg, iv measured after 24 hrs by LC-MS/MS analysis", "type": "ADME, organism-based", "details": "in vivo, read-out: Vdss"}, "[5]": {"assay": "Half-life in male Sprague-Dawley rat at 1 mg/kg, iv measured after 24 hrs by LC-MS/MS analysis", "type": "ADME, organism-based", "details": "in vivo"}, "[6]": {"assay": "Oral bioavailability in male Sprague-Dawley rat at 2 mg/kg measured after 24 hrs by LC-MS/MS analysis", "type": "ADME, organism-based", "details": "in vivo"}, "[7]": {"assay": "Clearance in male Beagle dog at 1 mg/kg, iv measured after 24 hrs by LC-MS/MS analysis", "type": "ADME, organism-based, Canis lupus familiaris", "details": "in vivo"}, "[8]": {"assay": "MRT in male Beagle dog at 1 mg/kg, iv measured after 24 hrs by LC-MS/MS analysis", "type": "ADME, organism-based, Canis lupus familiaris", "details": "in vivo"}, "[9]": {"assay": "Oral bioavailability in male Beagle dog at 2 mg/kg measured after 24 hrs by LC-MS/MS analysis", "type": "ADME, organism-based, Canis lupus familiaris", "details": "in vivo"}, "PBMC [10]": {"system": "PBMC", "assay": "Inhibition of LPS-induced TNF-alpha production in human PBMC cells at 0.01 to 10000 nM preincubated with compound for 1 hrs followed by LPS addition and measured after 4 hrs", "type": "functional, cell-based", "details": "dose 0.01-10000 nM, time 5.0 hrs"}, "PBMC [11]": {"system": "PBMC", "assay": "Inhibition of LPS-induced IL-8 production in human PBMC cells at 0.01 to 10000 nM preincubated with compound for 1 hrs followed by LPS addition and measured after 4 hrs", "type": "functional, cell-based", "details": "dose 0.01-10000 nM, time 5.0 hrs"}, "Cytochrome P450 2D6": {"molecular_target": "Cytochrome P450 2D6 (Homo sapiens, UniProt P10635)", "sequence (P10635 whole entry)": "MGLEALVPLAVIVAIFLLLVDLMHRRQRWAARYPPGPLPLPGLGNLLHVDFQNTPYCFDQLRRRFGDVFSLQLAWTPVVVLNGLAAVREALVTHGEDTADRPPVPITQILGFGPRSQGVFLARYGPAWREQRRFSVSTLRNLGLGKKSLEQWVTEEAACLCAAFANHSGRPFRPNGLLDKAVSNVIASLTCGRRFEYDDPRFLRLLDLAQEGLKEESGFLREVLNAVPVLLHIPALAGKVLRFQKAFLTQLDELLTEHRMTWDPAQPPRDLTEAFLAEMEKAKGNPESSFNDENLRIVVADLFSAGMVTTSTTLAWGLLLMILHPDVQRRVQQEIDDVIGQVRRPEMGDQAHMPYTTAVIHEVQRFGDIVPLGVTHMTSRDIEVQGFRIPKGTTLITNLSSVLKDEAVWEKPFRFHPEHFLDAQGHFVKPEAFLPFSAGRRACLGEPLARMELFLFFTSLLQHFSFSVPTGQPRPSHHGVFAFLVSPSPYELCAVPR", "assay": "Inhibition of CYP2D6 in human liver microsomes using dextromethorphan as substrate in presence of NADP by LC-MS/MS analysis", "type": "ADME, Microsome"}, "Cytochrome P450 3A4": {"molecular_target": "Cytochrome P450 3A4 (Homo sapiens, UniProt P08684)", "sequence (P08684 whole entry)": "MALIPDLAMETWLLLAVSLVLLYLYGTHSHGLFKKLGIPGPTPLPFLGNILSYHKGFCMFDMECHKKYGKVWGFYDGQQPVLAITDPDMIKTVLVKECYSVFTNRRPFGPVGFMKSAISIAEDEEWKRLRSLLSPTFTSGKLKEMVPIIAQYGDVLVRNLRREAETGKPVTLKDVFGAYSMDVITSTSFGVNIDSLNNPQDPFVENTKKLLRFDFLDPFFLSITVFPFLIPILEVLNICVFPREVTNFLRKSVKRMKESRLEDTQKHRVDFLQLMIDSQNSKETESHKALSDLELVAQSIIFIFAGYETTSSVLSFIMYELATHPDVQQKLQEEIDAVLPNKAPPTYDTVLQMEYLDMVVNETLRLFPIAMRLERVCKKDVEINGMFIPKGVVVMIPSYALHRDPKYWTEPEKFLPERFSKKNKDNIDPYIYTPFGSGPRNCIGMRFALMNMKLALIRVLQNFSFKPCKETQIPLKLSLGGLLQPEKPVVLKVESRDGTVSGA", "assay": "Inhibition of CYP3A4 in human liver microsomes using midazolam as substrate in presence of NADP by LC-MS/MS analysis", "type": "ADME, Microsome"}, "Cytochrome P450 2C9": {"molecular_target": "Cytochrome P450 2C9 (Homo sapiens, UniProt P11712)", "sequence (P11712 whole entry)": "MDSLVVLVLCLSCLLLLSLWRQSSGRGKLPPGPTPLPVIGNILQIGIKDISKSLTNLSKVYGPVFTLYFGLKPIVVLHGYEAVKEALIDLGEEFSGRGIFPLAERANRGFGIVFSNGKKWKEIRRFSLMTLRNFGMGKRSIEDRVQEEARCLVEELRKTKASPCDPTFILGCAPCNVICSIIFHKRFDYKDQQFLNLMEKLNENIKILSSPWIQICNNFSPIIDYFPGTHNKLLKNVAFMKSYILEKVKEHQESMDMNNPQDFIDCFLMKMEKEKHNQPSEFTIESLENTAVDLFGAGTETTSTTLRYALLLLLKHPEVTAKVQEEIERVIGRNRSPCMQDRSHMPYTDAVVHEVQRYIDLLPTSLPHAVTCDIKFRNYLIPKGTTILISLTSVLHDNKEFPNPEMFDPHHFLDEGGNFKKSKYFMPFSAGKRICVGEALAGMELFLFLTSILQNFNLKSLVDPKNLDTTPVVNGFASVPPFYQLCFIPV", "assay": "Inhibition of CYP2C9 in human liver microsomes using tolbutamide as substrate in presence of NADP by LC-MS/MS analysis", "type": "ADME, Microsome"}, "[12]": {"assay": "Half-life in female Lewis rat at 1 mg/kg, po measured after 24 hrs by LC-MS/MS analysis", "type": "ADME, organism-based", "details": "in vivo"}, "[13]": {"assay": "Cmax in female Lewis rat at 1 mg/kg, po measured after 24 hrs by LC-MS/MS analysis", "type": "ADME, organism-based", "details": "in vivo"}}, "note": "Active and inactive are the calls of the source. The calls are words filed in the database; no cut-off is given here.", "data": [{"smiles": "Cc1cnc(-c2ccnc(C(C)(C)O)n2)c(F)c1-n1c(C)cc(O[C@@H](C)c2ncc(F)cc2F)c(C)c1=O", "values": [{"measurement": "IC50", "setting": "[1]", "result": 5, "unit": "nM"}, {"measurement": "Ratio IC50", "setting": "[2]", "result": 1170}, {"measurement": "AUC(0-t) at 24 h", "setting": "[3]", "result": 1800, "unit": "ng·h/mL"}, {"measurement": "Vd", "setting": "[4]", "result": 1.2, "unit": "L/kg"}, {"measurement": "half-life", "setting": "[5]", "result": 168, "unit": "min"}, {"measurement": "bioavailability", "setting": "[6]", "result": 121, "unit": "%"}, {"measurement": "clearance", "setting": "[7]", "result": 4.5, "unit": "mL/min/kg"}, {"measurement": "MRT", "setting": "[8]", "result": 2.9, "unit": "h"}, {"measurement": "bioavailability", "setting": "[9]", "result": 68, "unit": "%"}, {"measurement": "inhibition", "setting": "PBMC [10]", "result": "Active"}, {"measurement": "inhibition", "setting": "PBMC [11]", "result": "Active"}, {"measurement": "IC50", "setting": "Cytochrome P450 2D6", "result": "> 40", "unit": "µM"}, {"measurement": "IC50", "setting": "Cytochrome P450 3A4", "result": "> 40", "unit": "µM"}, {"measurement": "IC50", "setting": "Cytochrome P450 2C9", "result": "> 40", "unit": "µM"}, {"measurement": "half-life", "setting": "[12]", "result": 234, "unit": "min"}, {"measurement": "Cmax", "setting": "[13]", "result": 299, "unit": "ng/mL"}]}]}
